For orientation: IC50 means the concentration needed to halve the response being measured.

Data on two molecules can be found in PubChem BioAssay AID488889 (Sanford-Burnham Center for Chemical Genomics, 2010).

The experiment has as its target Tyrosine-protein phosphatase non-receptor type 7 (Homo sapiens) (UniProt P35236). The experiment is described as follows: HePTP (PTPN7) phosphatase inhibitor potency, SAR follow-up, biochemical, set 3 (AID 488889). The note with it: recombinant HePTP phosphatase activity assay.

Chain of Tyrosine-protein phosphatase non-receptor type 7 (Homo sapiens) (P35236 whole entry, looked up): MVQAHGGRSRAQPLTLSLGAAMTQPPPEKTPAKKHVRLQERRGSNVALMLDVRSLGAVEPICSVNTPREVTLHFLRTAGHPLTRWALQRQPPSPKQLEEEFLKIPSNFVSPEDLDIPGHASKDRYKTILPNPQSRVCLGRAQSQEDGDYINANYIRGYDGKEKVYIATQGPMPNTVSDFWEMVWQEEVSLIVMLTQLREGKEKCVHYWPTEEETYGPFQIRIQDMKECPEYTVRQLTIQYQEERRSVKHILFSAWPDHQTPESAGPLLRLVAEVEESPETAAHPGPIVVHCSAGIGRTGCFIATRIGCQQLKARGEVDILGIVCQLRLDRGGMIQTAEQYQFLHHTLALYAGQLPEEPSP

Regarding `O=C(O)COc1ccc(/C=N/NC(=O)c2ccc(-c3csc(Nc4ccc(Cl)cc4)n3)cc2)cc1`, the IC50 is below 0.195 µM.

Regarding `CCOC(=O)COc1ccc(/C=N/NC(=O)c2ccc(-c3csc(Nc4ccc(Cl)cc4)n3)cc2)cc1`, the 50% inhibitory concentration (IC50) was 10.2 µM.
